Where “and” joins values, the source holds several entries; their conditions need not be identical. Identical values can stand only once.
How the values were obtained:
[1] = biological target: T1, Drosophila OR47a (Drosophila melanogaster, UniProt P81921); assay: Calcium ion fluorescence (GCaMP6) assay, OR47a stable HEK293 cell line; assay type: cell-based; settings: for Average response: mean of biological replicates; for DF norm AVERAGE OR47a: threshold 0.05, below shown as 0
T1 construct: expressed in transfected cells
T1 sequence (P81921 1-385): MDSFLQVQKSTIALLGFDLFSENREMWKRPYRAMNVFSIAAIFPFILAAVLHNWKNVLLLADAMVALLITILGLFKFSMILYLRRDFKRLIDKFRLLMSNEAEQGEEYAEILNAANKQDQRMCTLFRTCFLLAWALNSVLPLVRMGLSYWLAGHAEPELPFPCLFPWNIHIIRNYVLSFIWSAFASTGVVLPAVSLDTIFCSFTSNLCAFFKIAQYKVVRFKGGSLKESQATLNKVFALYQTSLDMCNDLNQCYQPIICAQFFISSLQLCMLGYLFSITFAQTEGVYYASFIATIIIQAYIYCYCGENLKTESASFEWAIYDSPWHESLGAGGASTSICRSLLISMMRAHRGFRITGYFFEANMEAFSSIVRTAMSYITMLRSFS
T1 sequence (Q9VNB5 1-486 partner): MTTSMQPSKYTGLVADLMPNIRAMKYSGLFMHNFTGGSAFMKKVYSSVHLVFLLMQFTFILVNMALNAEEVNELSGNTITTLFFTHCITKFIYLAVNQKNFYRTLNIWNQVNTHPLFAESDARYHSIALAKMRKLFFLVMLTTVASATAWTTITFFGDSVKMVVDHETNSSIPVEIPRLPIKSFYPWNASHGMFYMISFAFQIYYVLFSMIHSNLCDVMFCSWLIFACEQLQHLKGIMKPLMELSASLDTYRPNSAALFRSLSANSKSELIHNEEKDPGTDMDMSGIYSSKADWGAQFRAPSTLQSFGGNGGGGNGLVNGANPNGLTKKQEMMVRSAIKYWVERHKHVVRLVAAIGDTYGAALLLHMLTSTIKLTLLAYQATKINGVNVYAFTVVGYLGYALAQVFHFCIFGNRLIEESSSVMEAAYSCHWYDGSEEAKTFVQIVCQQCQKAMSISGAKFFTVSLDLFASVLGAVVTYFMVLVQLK
Outline: (§1)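 Responses are VUAA1-normalized ΔF: each VOC-evoked calcium signal, (FMAX−F0)/F0 over 30 s after injection, divided by the same line's mean 50 µM VUAA1 response. Cells were doxycycline-induced HEK293 with GCaMP6 and the cognate Drosophila OR, in HEPES buffer pH 7.3; ligands tested 0.01–100 μM.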

[2] = biological target: T2, Drosophila OR85b (Drosophila melanogaster, UniProt Q9VHQ7); assay: Calcium ion fluorescence (GCaMP6) assay, OR85b stable HEK293 cell line; assay type: cell-based; settings: for Average response: VUAA1-normalized response, mean of biological replicates; for DF norm AVERAGE OR85b: threshold 0.05, below shown as 0
T2 construct: expressed in transfected cells
T2 sequence (Q9VHQ7 1-390): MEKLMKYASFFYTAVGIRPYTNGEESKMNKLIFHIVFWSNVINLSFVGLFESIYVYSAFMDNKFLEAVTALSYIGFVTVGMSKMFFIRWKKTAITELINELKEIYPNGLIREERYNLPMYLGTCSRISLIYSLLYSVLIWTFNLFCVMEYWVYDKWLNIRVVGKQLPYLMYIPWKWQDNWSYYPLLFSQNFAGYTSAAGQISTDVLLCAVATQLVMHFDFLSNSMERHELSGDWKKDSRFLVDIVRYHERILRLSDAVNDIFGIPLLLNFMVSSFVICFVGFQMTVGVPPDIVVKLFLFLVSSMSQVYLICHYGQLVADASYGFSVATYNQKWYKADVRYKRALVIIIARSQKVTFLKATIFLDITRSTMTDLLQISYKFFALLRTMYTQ
T2 sequence (Q9VNB5 1-486 partner): T1 sequence (Q9VNB5 1-486 partner)
Outline: as §1

[3] = HEK293, read-out: OR47a Average response (VUAA1-normalized)
[4] = ligand concentration 1 (unit not given)
[5] = ligand concentration 10 (unit not given)
[6] = ligand concentration 100 (unit not given)
[7] = HEK293, read-out: OR85b Average response (VUAA1-normalized)

## CCCCCOC(C)=O [pentyl acetate]
[1]; AVERAGE EC50, the 14th table, corresponds to average LOG EC50, given with 95% confidence interval
  EC50: 2220 nM
[1]; EC50, AVERAGE of replicate fits, the 14th table, arithmetic average, N 5
  EC50: 2410 nM
[1]; EC50, OR47a cell line, fitted Hill equation, Hill coefficient constrained to 1, maximal response max 1
  EC50: 2220 nM
[1]; EC50, fitted average curve, the 14th table, fit to the average curve, n 0.854956
  EC50: 2560 nM
[1]; EC50, fitted parameter per biological replicate, the 14th table, individual replicate fits
  EC50: 1810 nM and 2840 nM and 3360 nM and 2980 nM and 1050 nM
[1]; [3]
  activation at 1 µM: 41%
  activation at 10 µM: 85%
  activation at 100 µM: 76%
[1]; HEK293, read-out: VUAA1 normalized MAX response
  Emax: 96%
[1]; LOG EC50, AVERAGE of replicate fits, the 14th table, N 5
  EC50: 2220 nM
[1]; LOG EC50, fitted parameter per biological replicate, the 14th table, OR47a D-R pentyl acetate, individual replicate fits, MIN 0, n 1
  EC50: 1810 nM and 2840 nM and 3360 nM and 2980 nM and 1050 nM
[1]; OR47a cell line, VOC concentration 1 μM
  OR47a response (VUAA1-normalized) at 1 μM: 0.41
[1]; OR47a cell line, VOC concentration 10 μM
  OR47a response (VUAA1-normalized) at 10 μM: 0.85
[1]; OR47a cell line, VOC concentration 100 μM
  OR47a response (VUAA1-normalized) at 100 μM: 0.76
[1]; OR47a cell line, odorant cc. 1 µM
  Average response: 0.41
[1]; OR47a cell line, odorant cc. 10 µM
  Average response: 0.85
[1]; OR47a cell line, odorant cc. 100 µM
  Average response: 0.76
[1]; [4]
  DF norm AVERAGE OR47a: 0.4101
[1]; [5]
  DF norm AVERAGE OR47a: 0.8532
[1]; [6]
  DF norm AVERAGE OR47a: 0.7595
[1]; the 14th table, VOC concentration 0.15
  dose-response, response per biological replicate: 0 (2×) and 0.08996
[1]; the 14th table, VOC concentration 0.15, N 3
  dose-response, AVERAGE response: 0.02999
[1]; the 14th table, VOC concentration 0.3
  dose-response, response per biological replicate: 0 (2×) and 0.06871 and 0.1596
[1]; the 14th table, VOC concentration 0.3, N 4
  dose-response, AVERAGE response: 0.05709
[1]; the 14th table, VOC concentration 0.6
  dose-response, response per biological replicate: 0.1609 and 0.1169 and 0.06805 and 0.08558 and 0.2252
[1]; the 14th table, VOC concentration 0.6, N 5
  dose-response, AVERAGE response: 0.1313
[1]; the 14th table, VOC concentration 1.25
  dose-response, response per biological replicate: 0.1915 and 0.1656 and 0.1715 and 0.5641
[1]; the 14th table, VOC concentration 1.25, N 4
  dose-response, AVERAGE response: 0.2732
[1]; the 14th table, VOC concentration 2.5
  dose-response, response per biological replicate: 0.3991 and 0.4483 and 0.3729 and 0.3818 and 0.7224
[1]; the 14th table, VOC concentration 2.5, N 5
  dose-response, AVERAGE response: 0.4649
[1]; the 14th table, VOC concentration 5
  dose-response, response per biological replicate: 0.9001 and 0.6438 and 0.6113 and 0.6294 and 0.9303
[1]; the 14th table, VOC concentration 5, N 5
  dose-response, AVERAGE response: 0.743
[1]; the 14th table, VOC concentration 10
  dose-response, response per biological replicate: 0.8372 and 0.7794 and 0.895 and 0.7979 and 1.027
[1]; the 14th table, VOC concentration 10, N 5
  dose-response, AVERAGE response: 0.8674
[1]; the 14th table, VOC concentration 20
  dose-response, response per biological replicate: 1.202 and 0.8226 and 0.9992 and 0.8736 and 1.052
[1]; the 14th table, VOC concentration 20, N 5
  dose-response, AVERAGE response: 0.99
[1]; the 14th table, VOC concentration 40
  dose-response, response per biological replicate: 1.114 and 0.9003 and 0.922 and 0.9538 and 0.9871
[1]; the 14th table, VOC concentration 40, N 5
  dose-response, AVERAGE response: 0.9754
[1]; the 14th table, VOC concentration 60
  dose-response, response per biological replicate: 1.02 and 0.8294 and 1.116 and 0.8263 and 0.955
[1]; the 14th table, VOC concentration 60, N 5
  dose-response, AVERAGE response: 0.9493
[1]; the 14th table, VOC concentration 80
  dose-response, response per biological replicate: 0.8413 and 0.8664 and 0.788 and 0.8411
[1]; the 14th table, VOC concentration 80, N 4
  dose-response, AVERAGE response: 0.8342
[1]; the 14th table, VOC concentration 100
  dose-response, response per biological replicate: 0.8402 and 0.9595 and 0.7641 and 0.7857
[1]; the 14th table, VOC concentration 100, N 4
  dose-response, AVERAGE response: 0.8374
[1]; the 14th table, average of replicate fits, N 5
  AVERAGE MAX: 0.9609
[1]; the 14th table, fit to the average curve, n 0.854956
  MAX, fitted average curve: 1
[1]; the 14th table, individual replicate fits
  MAX, fitted parameter per biological replicate: 1 (2×) and 0.9126 and 0.907 and 0.9849
[2]; [7]
  activation at 1 µM: 2%
  activation at 10 µM: 4%
  activation at 100 µM: 14%
[2]; OR85b cell line, VOC concentration 1 μM
  OR85b response (VUAA1-normalized) at 1 μM: 0.00
[2]; OR85b cell line, VOC concentration 10 μM
  OR85b response (VUAA1-normalized) at 10 μM: 0.00
[2]; OR85b cell line, VOC concentration 100 μM
  OR85b response (VUAA1-normalized) at 100 μM: 0.14
[2]; OR85b cell line, cc. 1 µM
  Average response: 0.0185
[2]; OR85b cell line, cc. 10 µM
  Average response: 0.04
[2]; OR85b cell line, cc. 100 µM
  Average response: 0.14
[2]; [4]
  DF norm AVERAGE OR85b: 0
[2]; [5]
  DF norm AVERAGE OR85b: 0
[2]; [6]
  DF norm AVERAGE OR85b: 0.1368
